Structures can show the parent of a compound that is named as a salt.
How the values were obtained:
[1] = tested on: MNs with mutant SOD1 gene (L144FVX); experiment: Large scale screen using ALS MN (MN survival readout); type: cell-based, human; conditions: for MN index: compounds at final concentration 10 μM added on day 7, cells fixed and stained on day 14, viable MNs stained with βIII-tubulin
Experimental: (§1) iPS cell cells containing LNI cassette were dissociated into single cells using Accutase, and seeded together with 1 μg/ml of doxycycline (TAKARA, Kusatsu, Japan) in N3 medium containing 1 μM retinoic acid, 1 μM SAG, 10 ng/ml BDNF, 10 ng/ml GDNF, and 10 ng/ml NT-3 on a 96 well plate (BD Bioscience) coated with Matrigel. The cells were fixed and stained on days 7 and 14. The number of viable MNs stained with βIII-tubulin was quantified by IN Cell Analyzer 6000 and expressed as the number of day 14/day 7. […] In this assay, therefore, βIII-tubulin positive neurons were defined as MN. Neurite and cell body were detected by optimized fluorescence levels, and the number of cell bodies having neurite was counted as the number of surviving neurons using IN Cell Developer toolbox software 1.9.
iPS cell cells containing LNI cassette were dissociated into single cells using Accutase, and seeded together with 1 ng/ml of doxycycline in N3 medium containing 1 μM RA, 1 μM SAG, 10 ng/ml BDNF, 10 ng/ml GDNF and 10 ng/ml NT-3 on a 96 well plate (BD Bioscience) coated with Matrigel. The libraries used for drug screening were Microsource US Drugs (Microsource Discovery Systems), Microsource International Drugs (Microsource Discovery Systems), and kinase inhibitor purchased from EMD and Selleck Chemicals. Using Integrity and Nextbio data base, existing drugs and test drugs in clinical trials were selected from these libraries and used for throughput screening. […] DMSO was used as a negative control, and kenpaullone, which is a candidate drug for ALS treatment, was used as a positive control. The number of viable MNs stained with βIII-tubulin was quantified by IN Cell Analyzer 6000.

[2] = tested on: mutant SOD1 ALS MNs (ALS1); experiment: MN survival assay and high content analysis; type: cell-based, human; conditions: for MN survival: mutant SOD1 ALS MNs (ALS1), compound added day 7, counted day 14
Experimental: as §1
Short interfering RNA (siRNA) was purchased from Life Technologies (siRNA ID of Src siRNA 1: s13414; siRNA ID of Src siRNA 2: s13413; siRNA ID of c-Abl siRNA 1: s866; siRNA ID of c-Abl siRNA 2: s864; siRNA ID of mTOR siRNA: s604). Scramble siRNA purchased from Life Technologies was used as a negative control of siRNA. iPS cells were dissociated and plated with dox in a 96 well plate. On day 7, siRNA was transfected with Lipofectamine RNAiMAX (Thermo Fisher Scientific). Viable MN was evaluated 4 days after transfection by immunostaining with βIII-tubulin, followed by analysis with IN Cell Analyzer 6000 and IN Cell Developer toolbox software 1.9.

[3] = tested on: mutant SOD1 Tg mice; experiment: ALS model mouse (Tg-G93A SOD1 mouse); type: in vivo; conditions: 5 mg/kg intraperitoneal from 8th week for 5 weeks; mean±SD, n=26 per group; Kaplan-Meier

## COCCNCc1ccc(-c2cc3nccc(Oc4ccc(NC(=S)NC(=O)Cc5ccc(F)cc5)cc4F)c3s2)nc1 [MGCD-265]
[1]
  MN index: 7.623

## Cc1ccc(NC(=O)c2ccc(CN3CCN(C)CC3)cc2)cc1Nc1nccc(-c2cccnc2)n1 [imatinib]
[2]
  MN survival: increased MN survival

## Cc1ccc(Nc2nccc(N(C)c3ccc4c(C)n(C)nc4c3)n2)cc1S(N)(=O)=O [pazopanib hydrochloride]
[1]
  MN index: 9.533

## Cc1c(C)c2c(c(C)c1O)CCC(C)(CCCC(C)CCCC(C)CCCC(C)C)O2 (stereo not drawn) [alpha-tochopherol]
[1]
  MN index: 9.456

## Cc1nc(Nc2ncc(C(=O)Nc3c(C)cccc3Cl)s2)cc(N2CCN(CCO)CC2)n1 [dasatinib]
[1]
  MN index: 6.659

## CN(C)CCCn1cc(C2=C(c3c[nH]c4ccccc34)C(=O)NC2=O)c2ccccc21 [bisindolylmaleimide I]
[1]
  MN index: 7.963

## CCN(CCCCOC(=O)c1ccc(OC)c(OC)c1)C(C)Cc1ccc(OC)cc1 (centres unmarked) [mebeverine hydrochloride]
[1]
  MN index: 6.856

## C[C@@H](Oc1cc(-c2cnn(C3CCNCC3)c2)cnc1N)c1c(Cl)ccc(F)c1Cl [PF-2341066]
[1]
  MN index: 7.595

## CCOc1ccn(-c2ccc(F)cc2)c(=O)c1C(=O)Nc1ccc(Oc2ccnc(N)c2Cl)c(F)c1 [BMS 777607]
[1]
  MN index: 8.551

## Cc1cn(-c2cc(NC(=O)c3ccc(C)c(Nc4nccc(-c5cccnc5)n4)c3)cc(C(F)(F)F)c2)cn1 [nilotinib]
[2]
  MN survival: increased MN survival

## CCN(CC)Cc1cc(Nc2ccnc3cc(Cl)ccc23)ccc1O [amodiaquine dihydrochloride]
[1]
  MN index: 8.98

## O=C(c1ccc(/C=C/c2n[nH]c3ccccc23)cc1)N1CCNCC1 [KW 2449]
[1]
  MN index: 7.722

## CN1CCc2cccc3c2[C@H]1Cc1ccc(O)c(O)c1-3 [apomorphine hydrochloride]
[1]
  MN index: 7.257

## Cc1cc(Nc2cc(N3CCN(C)CC3)nc(Sc3ccc(NC(=O)C4CC4)cc3)n2)n[nH]1 [VX-680]
[1]
  MN index: 9.578

## CNC(=O)c1ccccc1Sc1ccc2c(/C=C/c3ccccn3)n[nH]c2c1 [axitinib]
[1]
  MN index: 7.353

## CCN(CC)CCNC(=O)c1c(C)[nH]c(/C=C2\C(=O)Nc3ccc(F)cc32)c1C [sunitinib malate]
[1]
  MN index: 8.133

## Cc1cc2nc3c(=O)[nH]c(=O)nc-3n(C[C@H](O)[C@H](O)[C@H](O)CO)c2cc1C [riboflavin]
[1]
  MN index: 9.554

## CC1(C)O[C@@H]2C[C@H]3[C@@H]4C[C@H](F)C5=CC(=O)C=C[C@]5(C)[C@H]4[C@@H](O)C[C@]3(C)[C@]2(C(=O)CO)O1 [flunisolide]
[1]
  MN index: 7.857

## COc1ccc2c(c1OC)C(=O)O[C@@H]2[C@H]1c2cc3c(cc2CCN1C)OCO3 [hydrastine (1R, 9S)]
[1]
  MN index: 7.525

## COc1cc2nccc(Oc3ccc(NC(=O)Nc4cc(C)on4)c(Cl)c3)c2cc1OC [tivozanib]
[1]
  MN index: 17.26

## O=C(O)CCC(=O)c1ccc(-c2ccccc2)cc1 [fenbufen]
[1]
  MN index: 7.224

## Oc1ccc(O)cc1 [hydroquinone]
[1]
  MN index: 7.957

## CCN(CC)CCCC(C)Nc1ccnc2cc(Cl)ccc12 (centres unmarked) [chloroquine]
[2]; added to MNs with bosutinib treatment
  effect of autophagy inhibitor on the protective effect of bosutinib in MN survival assay: decreased the protective effect of bosutinib

## CCCC1O[C@@H]2C[C@H]3[C@@H]4CCC5=CC(=O)C=C[C@]5(C)[C@H]4[C@@H](O)C[C@]3(C)[C@]2(C(=O)CO)O1 (some centres unmarked) [budesonide]
[1]
  MN index: 10.27

## Cc1nc(N)sc1-c1ccnc(Nc2ccc(N3CCOCC3)cc2)n1 [CYC116]
[1]
  MN index: 8.142

## CCCCOC(=O)c1ccc(N)cc1 [butamben]
[1]
  MN index: 7.391

## COc1cc(Nc2c(C#N)cnc3cc(OCCCN4CCN(C)CC4)c(OC)cc23)c(Cl)cc1Cl [bosutinib (SKI-606), bosutinib]
[1]
  MN index: 7.196
[3]
  disease onset: 123.2 ± 9.1 days
  survival time: 164.1 ± 9.4 days

## Cn1cc(C2=C(c3cn(C4CCN(Cc5ccccn5)CC4)c4ccccc34)C(=O)NC2=O)c2ccccc21 [enzastaurin]
[1]
  MN index: 9.841

## O=C(/C=C/C=C/c1ccc2c(c1)OCO2)N1CCCCC1 [piperine]
[1]
  MN index: 7.391

## O=C1Cc2c([nH]c3ccc(Br)cc23)-c2ccccc2N1 [kenpaullone]
[1]; 50 μM, positive control assays
  positive control effect on ALS MN survival: positive effect was confirmed

— US20200368267A1, “PROPHYLACTIC AND/OR THERAPEUTIC AGENT FOR AMYOTROPHIC LATERAL SCLEROSIS” (KYOTO UNIVERSITY, priority 2017, published 2020)
